Data: patent US20200376007A1, “THERAPEUTIC COMPOUNDS AND METHODS OF USE THEREOF” (REGENTS OF THE UNIVERSITY OF MINNESOTA, priority 2019, published 2020)

The compounds below were run against T1, human TGR5 receptor (Homo sapiens, UniProt Q8TDU6) (assay: TGR5 cAMP assay). Conditions: TGR5 agonist activity; cAMP production in a recombinant cell line expressing human TGR5 receptor.
T1 construct: expressed in transfected cells
T1 sequence (Q8TDU6 1-330): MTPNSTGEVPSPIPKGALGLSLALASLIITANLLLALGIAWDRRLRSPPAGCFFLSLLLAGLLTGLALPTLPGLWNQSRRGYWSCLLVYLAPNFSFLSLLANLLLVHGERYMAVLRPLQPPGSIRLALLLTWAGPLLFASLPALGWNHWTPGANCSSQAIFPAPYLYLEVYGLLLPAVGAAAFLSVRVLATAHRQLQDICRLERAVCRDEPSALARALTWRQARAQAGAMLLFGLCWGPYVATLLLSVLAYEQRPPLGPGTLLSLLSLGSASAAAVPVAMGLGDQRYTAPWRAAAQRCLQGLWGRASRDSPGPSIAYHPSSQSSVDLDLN
Assay type: cell-based
Protocol: TGR5 agonist activity was evaluated by assaying cAMP production in a recombinant cell line expressing human TGR5 receptor.

| SMILES | EC50 [nM] |
| --- | --- |
| CO[C@@H]1C[C@@H]2C[C@H](O)CC[C@]2(C)[C@H]2CC[C@]3(C)[C@@H]([C@H](C)CCC(=O)O)CC[C@H]3[C@H]12 [Example 3, (R)-4-((3R,5S,7R,8R,9S,10S,13R,14S,17R)-3-hydroxy-7-methoxy-10,13-dimethylhexadecahydro-1H-cyclopenta[a]phenanthren-17-yl)pentanoic acid] | 74.9 |
| COCCOCCNC(=O)CC[C@@H](C)[C@H]1CC[C@H]2[C@@H]3[C@H](OC)C[C@@H]4C[C@H](O)CC[C@]4(C)[C@H]3CC[C@]12C [Example 4, (R)-4-((3R,5S,7R,8R,9S,10S,13R,14S,17R)-3-hydroxy-7-methoxy-10,13-dimethylhexadecahydro-1H-cyclopenta[a]phenanthren-17-yl)-N-(2-(2-methoxyethoxy)ethyl)pentanamide] | 49.5 |
| COCc1nnc(CC[C@@H](C)[C@H]2CC[C@H]3[C@@H]4[C@H](OC)C[C@@H]5C[C@H](O)CC[C@]5(C)[C@H]4CC[C@]23C)o1 [Example 5, (3R,5S,7R,8R,9S,10S,13R,14S,17R)-7-methoxy-17-((R)-4-(5-(methoxymethyl)-1,3,4-oxadiazol-2-yl)butan-2-yl)-10,13-dimethylhexadecahydro-1-cyclopenta[a]phenanthren-3-ol] | 22.6 |
| CO[C@@H]1C[C@@H]2C[C@H](O)CC[C@]2(C)[C@H]2CC[C@]3(C)[C@@H]([C@H](C)CCC(=O)NC[C@H](O)[C@@H](O)[C@H](O)[C@H](O)CO)CC[C@H]3[C@H]12 [Example 6, (R)-4-((3R,5S,7R,8R,9S,10S,13R,14S,17R)-3-hydroxy-7-methoxy-10,13-dimethylhexadecahydro-1H-cyclopenta[a]phenanthren-17-yl)-N-((2S,3R,4R,5R)-2,3,4,5,6-pentahydroxyhexyl)pentanamide] | 27.7 |
| CO[C@@H]1C[C@@H]2C[C@H](O)CC[C@]2(C)[C@H]2CC[C@]3(C)[C@@H]([C@H](C)CCC(=O)N(C)C[C@H](O)[C@@H](O)[C@H](O)[C@H](O)CO)CC[C@H]3[C@H]12 [Example 7, (R)-4-((3R,5S,7R,8R,9S,10S,13R,14S,17R)-3-hydroxy-7-methoxy-10,13-dimethylhexadecahydro-1H-cyclopenta[a]phenanthren-17-yl)-N-methyl-N-((2S,3R,4R,5R)-2,3,4,5,6-pentahydroxyhexyl)pentanamide] | 60.1 |
